The species entered for one experiment is Mus musculus. Description: Inhibition of PPARgamma/C/EBPalpha/SREBP1c in mouse 3T3L1 preadipocytes assessed as inhibition of adipocyte differentiation by measuring remaining lipid content at 100 uM measured on day 8 by Oil Red O staining-based spectrophotometric analysis relative to control. Format: cell-based.
Experiment [1] deals with T1, Peroxisome proliferator-activated receptor gamma (Mus musculus) (UniProt P37238).
T1 sequence (whole entry): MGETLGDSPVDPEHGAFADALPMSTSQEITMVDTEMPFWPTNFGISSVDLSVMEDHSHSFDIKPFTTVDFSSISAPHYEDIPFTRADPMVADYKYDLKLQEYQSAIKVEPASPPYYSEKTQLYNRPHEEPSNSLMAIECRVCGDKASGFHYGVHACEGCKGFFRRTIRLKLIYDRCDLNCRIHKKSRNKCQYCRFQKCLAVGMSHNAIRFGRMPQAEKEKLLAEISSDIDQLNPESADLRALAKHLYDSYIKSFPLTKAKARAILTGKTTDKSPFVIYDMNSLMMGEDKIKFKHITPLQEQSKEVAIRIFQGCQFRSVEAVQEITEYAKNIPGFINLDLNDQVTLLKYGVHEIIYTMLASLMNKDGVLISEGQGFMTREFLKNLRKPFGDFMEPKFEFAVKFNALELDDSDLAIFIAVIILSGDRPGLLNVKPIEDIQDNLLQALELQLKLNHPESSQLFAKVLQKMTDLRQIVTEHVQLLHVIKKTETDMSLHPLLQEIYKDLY
Description: Inhibition of PPARgamma in mouse 3T3L1 preadipocytes at 50 to 100 uM after 8 days by Western blot analysis relative to control. Format: cell-based. (In general: In western blotting, separated proteins are transferred to a membrane and probed.)

The target of experiment [2] is CCAAT/enhancer-binding protein alpha (Mus musculus) (UniProt P53566). Kind of experiment: Inhibition of C/EBPalpha in mouse 3T3L1 preadipocytes at 50 to 100 uM after 8 days by Western blot analysis relative to control. Format: cell-based.
Experiment [3] in a line: Downregulation of C/EBPbeta mRNA expression in mouse 3T3L1 preadipocytes at 50 to 100 uM measured on day 2 by qRT-PCR analysis. The following applies: 3T3-L1. Format: functional, cell-based. A general note: Real-time PCR tracks product formation cycle by cycle.
The nature of experiment [4]: Downregulation of C/EBPdelta mRNA expression in mouse 3T3L1 preadipocytes at 50 to 100 uM measured on day 2 by qRT-PCR analysis. Format: functional, cell-based. To be noted: 3T3-L1.
Experiment [5] addresses T2, Sterol regulatory element-binding protein 1 (Mus musculus) (UniProt Q9WTN3).
T2 sequence (whole entry): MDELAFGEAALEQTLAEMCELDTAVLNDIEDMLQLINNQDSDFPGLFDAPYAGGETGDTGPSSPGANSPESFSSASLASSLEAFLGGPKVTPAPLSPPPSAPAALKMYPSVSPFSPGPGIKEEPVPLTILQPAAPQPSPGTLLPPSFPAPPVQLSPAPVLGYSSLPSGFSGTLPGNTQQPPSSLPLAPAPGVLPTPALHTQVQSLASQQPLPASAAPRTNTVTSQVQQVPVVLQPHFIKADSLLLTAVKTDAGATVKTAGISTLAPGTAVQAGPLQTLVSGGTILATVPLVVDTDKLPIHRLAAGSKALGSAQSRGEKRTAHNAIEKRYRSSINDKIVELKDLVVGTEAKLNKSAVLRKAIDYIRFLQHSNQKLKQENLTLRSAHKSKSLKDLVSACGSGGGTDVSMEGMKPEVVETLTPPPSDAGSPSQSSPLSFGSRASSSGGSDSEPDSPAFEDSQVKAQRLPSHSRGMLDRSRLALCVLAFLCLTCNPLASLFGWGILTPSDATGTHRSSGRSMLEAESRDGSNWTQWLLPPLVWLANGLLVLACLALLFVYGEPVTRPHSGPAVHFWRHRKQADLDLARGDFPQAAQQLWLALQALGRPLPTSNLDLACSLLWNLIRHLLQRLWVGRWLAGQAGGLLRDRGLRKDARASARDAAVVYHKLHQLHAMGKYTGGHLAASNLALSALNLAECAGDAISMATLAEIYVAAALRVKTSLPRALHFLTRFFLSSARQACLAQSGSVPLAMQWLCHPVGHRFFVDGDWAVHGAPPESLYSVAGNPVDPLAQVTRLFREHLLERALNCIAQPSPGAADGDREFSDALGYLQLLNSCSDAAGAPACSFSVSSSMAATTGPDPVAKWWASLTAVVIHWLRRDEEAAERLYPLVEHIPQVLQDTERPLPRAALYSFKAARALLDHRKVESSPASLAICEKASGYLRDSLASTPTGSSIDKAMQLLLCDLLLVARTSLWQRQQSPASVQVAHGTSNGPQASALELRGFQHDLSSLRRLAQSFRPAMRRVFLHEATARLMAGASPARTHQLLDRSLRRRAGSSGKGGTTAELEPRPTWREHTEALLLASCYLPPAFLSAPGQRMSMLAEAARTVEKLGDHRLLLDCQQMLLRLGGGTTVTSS
Description: Inhibition of SREBP1c in mouse 3T3L1 preadipocytes at 50 to 100 uM after 8 days by Western blot analysis. Format: cell-based.

The target in experiment [6] is T2, Sterol regulatory element-binding protein 1 (Mus musculus). Kind of experiment: Inhibition of SREBP1c in mouse 3T3L1 preadipocytes assessed as downregulation of FAS mRNA expression at 50 to 100 uM after 8 days by qRT-PCR analysis. Format: cell-based.
Experiment [7] has the same target. Kind of experiment: Inhibition of SREBP1c in mouse 3T3L1 preadipocytes assessed as downregulation of SCD-1 mRNA expression at 50 to 100 uM after 8 days by qRT-PCR analysis. Format: cell-based.
Experiment [8] is described as follows: Downregulation of LPL mRNA expression in mouse 3T3L1 preadipocytes at 50 to 100 uM after 8 days by qRT-PCR analysis. Format: functional, cell-based. The following applies: 3T3-L1.

Activity calls are given as the source filed them. No cut-off for these calls is given here.

Chain of CCAAT/enhancer-binding protein alpha (Mus musculus) (P53566 whole entry): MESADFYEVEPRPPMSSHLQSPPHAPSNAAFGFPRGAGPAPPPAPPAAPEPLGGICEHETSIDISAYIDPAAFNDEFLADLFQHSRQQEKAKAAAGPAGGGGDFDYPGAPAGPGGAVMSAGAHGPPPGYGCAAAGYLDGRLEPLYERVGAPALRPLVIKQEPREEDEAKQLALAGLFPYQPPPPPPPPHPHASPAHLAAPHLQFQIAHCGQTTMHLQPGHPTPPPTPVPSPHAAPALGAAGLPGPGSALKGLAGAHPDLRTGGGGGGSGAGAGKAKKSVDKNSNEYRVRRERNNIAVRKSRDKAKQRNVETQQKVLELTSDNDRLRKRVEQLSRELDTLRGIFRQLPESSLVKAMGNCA

Take `O=C1CCCCc2ccc(O)c(c2)-c2cc(ccc2O)CC1`: in the experiment listed under Mus musculus, the Activity amounted to 54.4%.

On to `O=C(CCc1ccc(O)c(O)c1)C[C@H](CCc1ccc(O)c(O)c1)O[C@@H]1OC[C@@H](O)[C@H](O)[C@H]1OC(=O)/C=C/c1ccccc1`, for which the Activity in the experiment filed under Mus musculus turned out to be 85.6%.

Consider `Oc1ccc2cc1-c1cc(ccc1O)CC(O)C(O)CC(O)C(O)C2` (stereo not given), for which the Activity in the experiment listed under Mus musculus turned out to be 58.5%.

Turning to `COc1cc(/C=C/C(=O)O[C@H]2[C@H](O[C@@H](CCc3ccc(O)c(O)c3)CC(=O)CCc3ccc(O)c(O)c3)OC[C@@H](O)[C@@H]2O)ccc1O`, the Activity in the experiment listed under Mus musculus came to 71.3%.

On to `O=C(CCc1ccc(O)c(O)c1)C[C@H](CCc1ccc(O)c(O)c1)O[C@@H]1OC[C@@H](O)[C@H](O)[C@H]1OC(=O)/C=C/c1ccc(O)cc1`, for which the Activity in the experiment filed under Mus musculus came to 95.7%.

`O=C1CCc2ccc(O)c(c2)-c2cc(ccc2O)CCC(=O)C1O`: in the experiment filed under Mus musculus, the Activity was found to be 11.6%. Moreover, the inhibition entry in [1], in [2], in [5], in [6] and in experiment [7] was “Active” each time. Further, the result in experiment [3], in [4] and in [8] was Active.

In the case of `O=C(O[C@@H]1Cc2c(O)cc(O)cc2O[C@@H]1c1cc(O)c(O)c(O)c1)c1cc(O)c(O)c(O)c1`, the Activity in the experiment filed under Mus musculus stood at 54.5%.

Source of the values: ChEMBL document CHEMBL3616455, “Anti-adipogenic activity of a new cyclic diarylheptanoid isolated from Alnus japonica on 3T3-L1 cells via modulation of PPARγ, C/EBPα and SREBP1c signaling” (Bioorg Med Chem Lett, 2015).
